Among the data in ChEMBL document CHEMBL1149722, “Alkaloids from Psychotria oleoides with activity on growth hormone release” (J Nat Prod, 1992) are Activity values, retold here.

This test is filed under the species Rattus norvegicus. The test can be described thus: Antagonist activity at SRIF in rat pituitary culture assessed as effect on growth hormone secretion. It counts as functional.

The source made the active and inactive calls. The calls are words filed in the database; no cut-off is given here.

Turning to `CN1CC[C@]2(c3cccc4c3C[C@H]3N(C)CC[C@@]45[C@@H]4Nc6c([C@]78CCN(C)[C@H]7Nc7ccccc78)cccc6[C@]35CCN4C)c3ccccc3N[C@H]12`, the result was Active.
